Reference: patent publication US7122523B2, “Methods for inhibiting tumor cell proliferation” (University of Southern California, priority 2001, dated 2006)

Legend:
Type in all cases: cell-based
[1] = test system: Ovarian papillary serous carcinoma; experiment: Human tumor cell clonigenic assay (tritiated thymidine incorporation); conditions: Sample 2, Ovarian papillary serous carcinoma
Method: (§1) Primary and metastatic tumors obtained from the Department of Obstetrics and Gynecology Pathology Section and the Surgical Pathology Division of Los Angeles County/University of Southern California were minced into pieces less than 2 mm in diameter in the presence of RPMI-1640 (Gibco, Grand Island, NTY) containing 15% heat-inactivated fetal calf serum. Each gram of tumor tissue was treated with 10–20 mL of enzyme medium, consisting of Hanks' balanced salt solution with 0.03% DNAse (500 Kunitz units/mL; Sigma Chemical Co., St. Louis, Mo.) and 0.14% collagenase type I (Sigma). Tumor fragments were stirred for 90 minutes at 37° C. in the presence of 5% CO2. After enzymatic digestion, the free cells were decanted through 40-gauge mesh strainers and centrifuged at 200×g for 10 minutes. The supernatant was removed and viable cells were resuspended in RPMI 1640. The cell number was determined using a hematocytometer and 0.04% trypan blue dye. The cells were then centrifuged and the pellet resuspended in RPMI 1640 at 5×10^5 cells/mL.
(§2) Human cancer cells were obtained from operative specimens provided by the Division of Gynecologic Oncology, Department of Obstetrics and Gynecology, or the Department of Surgical Pathology of Los Angeles County/University of Southern California School of Medicine. Tumor cells were maintained in vitro in RPMI 1640 medium supplemented with 15% heat-inactivated fetal calf serum, 100 μg/mL streptomycin, fungizone 25 μg/mL, and 100 μ/mL penicillin.
(§3) Cells were cultured on an underlayer of 0.5% agarose (Bethesda Research Labs, Bethesda, Md.) prepared from a 3% stock of agarose with added penicillin (100 units/mL), streptomycin (100 μg/mL), and fungizone (1.25 μg/mL) (GIBCO) as per a modification of an established procedure. The cloning efficiency of this assay varied depending upon the source of the tissue. One milliliter of this 0.5% agarose mixture was added to each 16×16-mm well of a 24-well plate and the plates were refrigerated for 10 minutes at 4° C. Cells were suspended in 0.6% agarose in RPMI-1640 supplemented with antibiotics and 15% fetal calf serum. One aliquot (0.5 mL) of cell suspension was added to each underlaver at a final concentration of 5×10^4 cells/well, and the plates were refrigerated 10 minutes at 4° C.
(§4) After a 72-hour incubation at 37° C., 5 μCi of tritiated thymidine (specific activity 18.2 Ci/mmol; New England Nuclear, Boston, Mass.) was layered over each well, and the plates were returned to the incubator for an additional 24 hours, incorporation of thymidine was terminated by transferring the agarose layers to 10-mL glass centrifuge tubes (Kimble, Division of Owens, Ill.) and boiling the tubes for 15 minutes in a water bath. The volume was brought to 8 mL, the tubes were centrifuged, and the pellets were washed with phosphate-buffered saline and then dissolved in 3 mL of 0.85 N KOH for 1 hour at 80° C. The tubes were cooled on ice and the hydrolysates were precipitated by adding 30 μL of 1% human serum albumin (Sigma) and 2.4 mL of ice-cold trichloroacetic acid. After overnight storage at 4° C., precipitates were collected by centrifugation. Pellets were washed with 5% trichloroacetic acid, dissolved in 0.3 mL of 0.075 N KOH, and transferred to scintillation vials to which 5 mL of Liquiscint (National Diagnostics, Somerville, N.J.) were added. Radioactivity per vial was measured in a Nuclear-Chicago liquid scintillation counter.

[2] = test system: Cervical squamous cell carcinoma; experiment: as above
Method: as §1, §2, §3, §4

[3] = test system: Ovarian adenocarcinoma; experiment: as above; conditions: for Effect of AII(1–7) on proliferation: AII(1–7) 0.1 ng/ml–10 μg/ml; for IC50 (ng/ml) of AII(1–7): proliferation
Method: as §1, §2, §3, §4

[4] = test system: Cystic poorly differentiated endometroid carcinoma of ovary; experiment: as above; conditions: Sample 30, Cystic poorly differentiated endometroid carcinoma of ovary; AII(1–7) 0.1 ng/ml–10 μg/ml
Method: as §1, §2, §3, §4

[5] = test system: Colon adenocarcinoma; experiment: as above; conditions: Sample 25, Colon adenocarcinoma
Method: as §1, §2, §3, §4

[6] = test system: Endometrial adenocarcinoma; experiment: as above; conditions: for Effect of AII(1–7) on proliferation: AII(1–7) 0.1 ng/ml–10 μg/ml; for IC50 (ng/ml) of AII(1–7): proliferation
Method: as §1, §2, §3, §4

[7] = test system: Breast adenocarcinoma; experiment: as above; conditions: for Effect of AII(1–7) on proliferation: AII(1–7) 0.1 ng/ml–10 μg/ml; for IC50 (ng/ml) of AII(1–7): proliferation
Method: as §1, §2, §3, §4

[8] = test system: Metastatic, recurrent moderately to poorly differentiated colonic adenocarcinoma; experiment: as above; conditions: Sample 34, Metastatic, AII(1–7) 0.1 ng/ml–10 μg/ml
Method: as §1, §2, §3, §4

[9] = test system: Leiomyosarcoma; experiment: as above; conditions: Sample 1, Leiomyosarcoma; AII(1–7) 0.1 ng/ml–10 μg/ml
Method: as §1, §2, §3, §4

[10] = test system: Metastatic Ovarian Papillary Carcinoma to Omentum; experiment: as above; conditions: Sample 13, Metastatic Ovarian Papillary Carcinoma to Omentum; AII(1–7) 0.1 ng/ml–10 μg/ml
Method: as §1, §2, §3, §4

[11] = test system: Colonic adenocarcinoma, Gr 3–4, moderately to poorly differentiated; experiment: as above; conditions: Sample 36, Colonic adenocarcinoma
Method: as §1, §2, §3, §4

[12] = test system: Metastatic uterine carcinosarcoma to the ovary; experiment: as above; conditions: Sample 5, Metastatic uterine carcinosarcoma to the ovary; AII(1–7) 0.1 ng/ml–10 μg/ml
Method: as §1, §2, §3, §4

[13] = test system: Ovarian Serous papillary carcinoma; experiment: as above; conditions: Sample 31, Ovarian Serous papillary carcinoma
Method: as §1, §2, §3, §4

[14] = test system: Recurrent moderately differentiated colonic adenocarcinoma; experiment: as above; conditions: Sample 19, Recurrent moderately differentiated colonic adenocarcinoma; AII(1–7) 0.1 ng/ml–10 μg/ml
Method: as §1, §2, §3, §4

[15] = test system: Squamous Cell Carcinoma of the Cervix, gr 3; experiment: as above; conditions: Sample 12, Squamous Cell Carcinoma of the Cervix, AII(1–7) 0.1 ng/ml–10 μg/ml
Method: as §1, §2, §3, §4

[16] = test system: Ovarian Cancer-High Grade Clear Cell Carcinoma; experiment: as above; conditions: Sample 16, Ovarian Cancer-High Grade Clear Cell Carcinoma; AII(1–7) 0.1 ng/ml–10 μg/ml
Method: as §1, §2, §3, §4

[17] = test system: Metastatic colon adenocarcinoma; experiment: as above; conditions: Sample 26, Metastatic colon adenocarcinoma; AII(1–7) 0.1 ng/ml–10 μg/ml
Method: as §1, §2, §3, §4

[18] = test system: Invasive, moderately differentiated adenocarcinoma of colon; experiment: as above; conditions: Sample 29, Invasive, AII(1–7) 0.1 ng/ml–10 μg/ml
Method: as §1, §2, §3, §4

[19] = test system: Uterine Carcinosarcoma; experiment: as above; conditions: Sample 17, Uterine Carcinosarcoma; AII(1–7) 0.1 ng/ml–10 μg/ml
Method: as §1, §2, §3, §4

[20] = test system: Serous tumor of low malignant potential; experiment: as above; conditions: Sample 6, Serous tumor of low malignant potential; AII(1–7) 0.1 ng/ml–10 μg/ml
Method: as §1, §2, §3, §4

[21] = test system: Ovarian carcinoma-clear cell; experiment: as above; conditions: Sample 3, Ovarian carcinoma-clear cell; AII(1–7) 0.1 ng/ml–10 μg/ml
Method: as §1, §2, §3, §4

[22] = test system: Human Primary Tumor Cells; experiment: Clonigenic assay, Chi Square analysis of tumor-type specificity over all samples
Method: as §1, §2, §3, §4

[23] = Sample 27, Ovarian adenocarcinoma
[24] = Sample 32, Ovarian adenocarcinoma
[25] = Sample 4, Endometrial adenocarcinoma
[26] = Sample 8, Endometrial adenocarcinoma
[27] = Sample 11, Endometrial adenocarcinoma
[28] = Sample 18, Endometrial adenocarcinoma
[29] = Sample 22, Endometrial adenocarcinoma
[30] = Sample 23, Endometrial adenocarcinoma
[31] = Sample 7, Breast adenocarcinoma
[32] = Sample 10, Breast adenocarcinoma
[33] = Sample 20, Breast adenocarcinoma
[34] = Sample 21, Breast adenocarcinoma
[35] = Sample 24, Breast adenocarcinoma
[36] = Sample 28, Breast adenocarcinoma

## CC[C@H](C)[C@H](NC(=O)[C@H](Cc1ccc(O)cc1)NC(=O)[C@@H](NC(=O)[C@H](CCCNC(=N)N)NC(=O)[C@@H](N)CC(=O)O)C(C)C)C(=O)N[C@@H](Cc1c[nH]cn1)C(=O)N1CCC[C@H]1C(=O)O [AII(1–7), Asp-Arg-Val-Tyr-Ile-His-Pro]
[1]; AII(1–7) 0.1 ng/ml–10 μg/ml
  Effect of AII(1–7) on proliferation: Decreased
[1]; proliferation
  IC50 (ng/ml) of AII(1–7): 3.0 ng/mL
[2]; Sample 37, Cervical squamous cell adenocarcinoma, proliferation
  IC50 (ng/ml) of AII(1–7): 2.73 ng/mL
[2]; Sample 37, Cervical squamous cell carcinoma, AII(1–7) 0.1 ng/ml–10 μg/ml
  Effect of AII(1–7) on proliferation: Decreased
[3]; [23]
  Effect of AII(1–7) on proliferation: Decreased
  IC50 (ng/ml) of AII(1–7): 3.6 ng/mL
[3]; [24]
  Effect of AII(1–7) on proliferation: Decreased
  IC50 (ng/ml) of AII(1–7): 3.4 ng/mL
[3]; Sample 33, Ovarian adenocarcinoma
  Effect of AII(1–7) on proliferation: No Effect
[4]
  Effect of AII(1–7) on proliferation: No Effect
[5]; AII(1–7) 0.1 ng/ml–10 μg/ml
  Effect of AII(1–7) on proliferation: Decreased
[5]; proliferation
  IC50 (ng/ml) of AII(1–7): 4.75 ng/mL
[6]; [25]
  Effect of AII(1–7) on proliferation: Decreased
  IC50 (ng/ml) of AII(1–7): 1.0 ng/mL
[6]; [26]
  Effect of AII(1–7) on proliferation: Decreased
  IC50 (ng/ml) of AII(1–7): 1.0 ng/mL
[6]; Sample 9, Endometrial adenocarcinoma
  Effect of AII(1–7) on proliferation: Decreased
[6]; [27]
  Effect of AII(1–7) on proliferation: No Effect
  IC50 (ng/ml) of AII(1–7): No Effect
[6]; [28]
  Effect of AII(1–7) on proliferation: No Effect
  IC50 (ng/ml) of AII(1–7): No Effect
[6]; [29]
  Effect of AII(1–7) on proliferation: Decreased
  IC50 (ng/ml) of AII(1–7): 0.1 ng/mL
[6]; [30]
  Effect of AII(1–7) on proliferation: Decreased
  IC50 (ng/ml) of AII(1–7): 4.0 ng/mL
[7]; [31]
  Effect of AII(1–7) on proliferation: Decreased
  IC50 (ng/ml) of AII(1–7): 2.73 ng/mL
[7]; [32]
  Effect of AII(1–7) on proliferation: No Effect
  IC50 (ng/ml) of AII(1–7): No Effect
[7]; [33]
  Effect of AII(1–7) on proliferation: Decreased
  IC50 (ng/ml) of AII(1–7): 0.3 ng/mL
[7]; [34]
  Effect of AII(1–7) on proliferation: No Effect
  IC50 (ng/ml) of AII(1–7): No Effect
[7]; [35]
  Effect of AII(1–7) on proliferation: Decreased
  IC50 (ng/ml) of AII(1–7): 4.25 ng/mL
[7]; [36]
  Effect of AII(1–7) on proliferation: Decreased
  IC50 (ng/ml) of AII(1–7): 2.97 ng/mL
[8]
  Effect of AII(1–7) on proliferation: No Effect
[9]
  Effect of AII(1–7) on proliferation: No Effect
[10]
  Effect of AII(1–7) on proliferation: No Effect
[11]; AII(1–7) 0.1 ng/ml–10 μg/ml
  Effect of AII(1–7) on proliferation: Decreased
[11]; proliferation
  IC50 (ng/ml) of AII(1–7): 2.55 ng/mL
[12]
  Effect of AII(1–7) on proliferation: Equivocal
[13]; AII(1–7) 0.1 ng/ml–10 μg/ml
  Effect of AII(1–7) on proliferation: Decreased
[13]; proliferation
  IC50 (ng/ml) of AII(1–7): 2.34 ng/mL
[14]
  Effect of AII(1–7) on proliferation: No Effect
[15]
  Effect of AII(1–7) on proliferation: No Effect
[16]
  Effect of AII(1–7) on proliferation: No Effect
[17]
  Effect of AII(1–7) on proliferation: Variable
[18]
  Effect of AII(1–7) on proliferation: No Effect
[19]
  Effect of AII(1–7) on proliferation: No Effect
[20]
  Effect of AII(1–7) on proliferation: No Effect
[21]
  Effect of AII(1–7) on proliferation: No Effect
[22]; All adenocarcinoma: 14 decreased, 8 not affected
  tumors affected (proliferation decreased): 63.6%
[22]; Breast infiltrating ductal adenocarcinoma: 4 decreased, 2 not affected
  tumors affected (proliferation decreased): 66.7%
[22]; Uterine adenocarcinoma and breast infiltrating ductal adenocarcinoma: 9 decreased, 4 not affected
  tumors affected (proliferation decreased): 69.2%
[22]; Uterine adenocarcinoma: 5 decreased, 2 not affected
  tumors affected (proliferation decreased): 71.4%
[22]; Uterine, ovarian and breast adenocarcinomas: 11 decreased, 5 not affected
  tumors with decreased proliferation: 68.8%
[22]; remaining tumors not adenocarcinoma: 2 decreased, 10 not affected
  tumors affected (proliferation decreased): 16.7%
[22]; remaining tumors not of breast infiltrating ductal adenocarcinoma origin: 12 decreased, 16 not affected
  tumors affected (proliferation decreased): 42%
[22]; remaining tumors not of uterine adenocarcinoma origin: 11 decreased, 16 not affected
  tumors affected (proliferation decreased): 40.7%
[22]; remaining tumors not of uterine or breast adenocarcinoma origin: 7 decreased, 14 not affected
  tumors affected (proliferation decreased): 33.3%
[22]; remaining tumors not of uterine, ovarian or breast adenocarcinoma origin: 5 decreased, 13 not affected
  tumors with decreased proliferation: 27.8%
